Data reported in BindingDB's records for doi:10.1016/j.bmcl.2010.10.094 (Universit&#224, 2010).

These compounds were tested against carbonic anhydrase XII (human) (assay: Inhibition of human recombinant CA12 catalytic domain by stopped-flow CO2 hydration method).

Row | Ki [nM] | SMILES
1 | > 100000 | CCCOc1cc2oc(=O)ccc2cc1C(C)=O [6-acetyl-7-propoxy-2H-chromen-2-one]
2 | 33.2 | CCOc1ccc2ccc(=O)oc2c1C(=O)CC [7-ethoxy-8-propionyl-2H-chromen-2-one]
3 | 31.5 | CC(=O)c1c(OCCC23CC4CC(CC(C4)C2)C3)ccc2ccc(=O)oc12 [8-Acetyl-7-(2-adamantan-1-yl-ethoxy)-chromen-2-one]
4 | 22.4 | CC(=O)c1c(OCc2ccccc2)ccc2ccc(=O)oc12 [8-acetyl-7-(benzyloxy)-2H-chromen-2-one]
5 | 1 | CCOc1ccc2ccc(=O)oc2c1C(C)=O [8-acetyl-7-ethoxy-2H-chromen-2-one]
6 | 0.98 | CCCOc1ccc2ccc(=O)oc2c1C(C)=O [8-acetyl-7-propoxy-2H-chromen-2-one]
